Measured values from patent US20240327450A1, “GLUCOSE DERIVATIVES AND ANTICANCER AGENT USING SAME” (ORBIO CORPORATION, priority 2021, published 2024).

How the values were obtained:
[1] = system: nutritional deficit pancreatic cancer cells; conditions: Onodera, T. et al. J. Biol. Chem. 295, 16678-16690, 2020; cited from earlier work
[2] = system: mouse insulinoma MIN6 cells; assay: Viable cell activity by Calcein-AM fluorescence in MIN6 cells; assay type: cell-based; conditions: for cellular activity expressed as Calcein intensity: MIN6 cells at 5 DIV, 1,000 μM, vs negative control KRB; for cellular activity as assessed with Calcein: 30 minutes, vs KRB alone
Method: Effects of E2-ADG (synthesized in Example 2) and E2-ALG (synthesized in Example 4) on proliferation of cells were examined. A pancreatic beta cell line (insulinoma) MIN6 from mouse pancreas (Miyazaki J. et al., Endocrinology 127: 126-132, 1990) was used as the cells, and all experiments were performed using early passage cells with a passage number of 10 or less.
(§1) In this experiment, approximately 3,000 MIN6 cells per well were seeded in each well of a 96-well plate. When 5 DIV elapsed from initiation of culture, wells to which E2-ALG was administrated and wells to which E2-ADG was administrated were arranged in the same plate with minimal external disturbance, and administration was performed according to the previously established method (Sasaki, A. et al., Human Cell 2016, 29, 37-45). The E2-ALG was dissolved in a buffer to a concentration of 1,000 μM, administered to the MIN6 cells for 10 or 30 minutes, and then washed out with a buffer solution without the E2-ALG. Meanwhile, the E2-ADG at a concentration of 1,000 μM was administered in the same manner. Carbenoxolone was pre-dissolved in a buffer solution for the purpose of excluding uptake via Hemichannel and Gap junction (Sasaki, A. et al., Human Cell 2016, 29, 37-45).
A change in cellular activity was assessed using a live cell marker Calcein-AM. The Calcein-AM is permeable to a cell membrane, and after entering a cell, an AM moiety is cleaved by an esterase activity of the cell to produce Calcein which emits green fluorescence. The Calcein-AM was applied to the MIN6 cells according to a conventional method, green fluorescence emitted by the cells was quantitatively measured using a confocal quantitative image cytometer CellVoyager CQ1 (Yokogawa Electric Corporation), and image analysis was performed using software attached to the CQ1. A difference between an E2-ALG administration group and an E2-ADG administration group was statistically compared using Stat View 5.0. The Bonferroni-Dunn test was used for the statistical comparison. A value shown by MIN6 cells at the same time as above in a Krebs-Ringer buffer (KRB) solution without E2-ALG or E2-ADG was used as a negative control.
(§2) An administration test was performed in the same manner as in Example 5-1, except that M2-ADG (synthesized in Example 1) was used instead of E2-ADG, and M2-ALG (synthesized in Example 3) was used instead of E2-ALG. However, the M2-ADG or the M2-ALG was administered for 30 minutes after 4 DIV from initiation of culture, and a concentration of the M2-ADG or the M2-ALG was 10 μM, 100 μM, or 1,000 μM.

[3] = system: mouse insulinoma MIN6 cells; assay: Cell death by Propidium Iodide (PI) signal in MIN6 cells; assay type: cell-based; conditions: for occurrence of cell death (PI) / PI-positive cell death: MIN6 cells at 5 DIV, 1,000 μM; for occurrence of cell death (PI): both 10-minute and 30-minute administrations, vs negative control KRB; for effect on the cells (proportion of dead cells, PI) / cytotoxicity (PI) eliminated by PHT: MIN6 cells at 11 DIV; for effect on the cells (proportion of dead cells, PI) / proportion of dead cells expressed as a PI value / cytotoxicity (PI) eliminated by PHT: 90 minutes; for effect on the cells (proportion of dead cells, PI) / proportion of dead cells expressed as a PI value: vs KRB solution alone; for proportion of dead cells expressed as a PI value: MIN6 cells at 11 DIV, 1,000 μM; for cytotoxicity (PI) eliminated by PHT: compound 1,000 μM, PHT 150 μM
Method: as §1
An extent of occurrence of cell death was assessed using Propidium Iodide (PI), a red dye that is impermeable to a cell membrane. The PI was applied to the MIN6 cells simultaneously with the Calcein-AM. The principle of assessing cell death using PI is as follows. […] However, when the PI nonspecifically enters a cell due to loss of integrity of a cell membrane caused by deterioration of a cell state, the PI binds to a nucleus of the cell, causing the nucleus to emit red fluorescence. A degree of the red fluorescence was quantitatively measured using the CellVoyager CQ1, and image analysis was performed using the software attached to the CQ1. Additionally, the degree of occurrence of cell death was evaluated by statistically comparing the control group with the administration groups or the E2-ALG administration group with the E2-ADG administration group.
Using MIN6 cells with a passage number of 10 or less, E2-ALG or E2-ADG was applied to the MIN6 cells at a concentration of 1,000 μM for 90 minutes at 11 DIV of culture at a time when spheroids with a diameter of 100 μm or more are normally formed. Specifically, approximately 1,000 MIN6 cells per well were seeded in each well of a 96-well plate and E2-ALG was dissolved in a buffer to a concentration of 10 μM or 1,000 μM at 11 DIV, administered to the MIN6 cells for 90 minutes, and then rapidly washed out with a buffer solution without E2-ALG. Similarly, E2-ADG was applied simultaneously to other wells in the same plate. A cell death marker PI was used to statistically compare a control group with administration groups or an E2-ALG administration group with an E2-ADG administration group (FIG. 3).
Whether cell death in MIN6 cells caused by E2-ALG and E2-ADG was via a specific transport mechanism that is inhibited by PHT was analyzed on the same plate. […] The E2-ADG was also tested simultaneously in the same manner on the same plate and both were compared to a control.
as §2

[4] = system: colon cancer cells; conditions: Et3PAuCl alone; ACS Med. Chem. Lett. 8: 997-1001, 2017; cited from earlier work
[5] = MIN6 cells at 4 DIV, 10 μM, 30 minutes, vs negative control
[6] = MIN6 cells at 4 DIV, 100 μM, 30 minutes, vs negative control
[7] = MIN6 cells at 4 DIV, 1,000 μM, 30 minutes

CC(=O)OC[C@H]1O[C@@H]([S-])[C@H](OC(C)=O)[C@@H](OC(C)=O)[C@@H]1OC(C)=O.CCP(CC)CC.[Au+] [Auranofin]
effect in nutritional deficit pancreatic cancer cells [1]: effective

CCP(CC)CC.OC[C@H]1OC(O)[C@H]([S][Au])[C@@H](O)[C@@H]1O (stereo partly drawn) [Compound E2-ADG]
cellular activity expressed as Calcein intensity ([2]; 10-minute administration): slightly lower than that for the E2-ALG, but there was no statistically significant difference therebetween
cellular activity expressed as Calcein intensity ([2]; 30-minute administration): clear decrease in cellular activity
occurrence of cell death (PI) [3]: no statistically significant difference
effect on the cells (proportion of dead cells, PI) ([3]; 10 μM): larger than that of the negative control (the KRB solution alone) as an average value, but not significantly different
proportion of dead cells expressed as a PI value [3]: significant increase in a proportion of dead cells
cytotoxicity (PI) eliminated by PHT [3]: approximately 75%

CCP(CC)CC.OC[C@@H]1OC(O)[C@@H]([S][Au])[C@H](O)[C@H]1O (stereo partly drawn) [Compound E2-ALG]
cellular activity expressed as Calcein intensity ([2]; 10-minute administration): slightly decreased an average value of the cellular activity compared to the negative control group, but there was no statistically significant difference
cellular activity expressed as Calcein intensity ([2]; 30-minute administration): the cellular activity was clearly decreased compared to the negative control
occurrence of cell death (PI) [3]: no statistically significant difference
effect on the cells (proportion of dead cells, PI) ([3]; 10 μM): larger than that of the negative control (the KRB solution alone) as an average value, but not significantly different
proportion of dead cells expressed as a PI value [3]: significant increase in a proportion of dead cells
cytotoxicity (PI) eliminated by PHT [3]: approximately 75%

CP(C)C.OC[C@H]1OC(O)[C@H]([S][Au])[C@@H](O)[C@@H]1O (stereo partly drawn) [Compound M2-ADG]
cellular activity as assessed with Calcein ([2]; MIN6 cells at 4 DIV, 10 μM): no significant difference in cellular activity
cellular activity as assessed with Calcein ([2]; MIN6 cells at 4 DIV, 100 μM): no significant difference in cellular activity
cellular activity as assessed with Calcein ([2]; MIN6 cells at 4 DIV, 1,000 μM): significant decrease in cellular activity
degree of cell death (PI) [3, 5]: no difference in a degree of cell death
degree of cell death (PI) [3, 6]: an average value increased, but there was still no significant difference from the negative control
degree of cell death (PI) [3, 7]: clear cell death was observed

CP(C)C.OC[C@@H]1OC(O)[C@@H]([S][Au])[C@H](O)[C@H]1O (stereo partly drawn) [Compound M2-ALG]
cellular activity as assessed with Calcein ([2]; MIN6 cells at 4 DIV, 10 μM): no significant difference in cellular activity
cellular activity as assessed with Calcein ([2]; MIN6 cells at 4 DIV, 100 μM): no significant difference in cellular activity
cellular activity as assessed with Calcein ([2]; MIN6 cells at 4 DIV, 1,000 μM): significant decrease in cellular activity
degree of cell death (PI) [3, 5]: no difference in a degree of cell death
degree of cell death (PI) [3, 6]: an average value increased, but there was still no significant difference from the negative control
degree of cell death (PI) [3, 7]: clear cell death was observed

CC[PH](CC)(CC)[Au][S][C@@H]1OC(CO)[C@@H](O)[C@H](O)C1O (stereo partly drawn) [DGG, reference compound]
PI-positive cell death ([3]; 10 minutes): more PI-positive cell death than the negative control
PI-positive cell death ([3]; 30 minutes): distinct PI-positive cell death

CCP(CC)CC.[Au+].[Cl-] [Et3PAuCl, chloro(triethylphosphine)gold(I)]
cytotoxicity to colon cancer cells [4]: cytotoxic

CC[PH](CC)(CC)[Au][S][C@H]1O[C@@H](CO)[C@H](O)[C@@H](O)[C@@H]1O [LGG, reference compound]
PI-positive cell death ([3]; 10 minutes): PI-positive cell death comparable to that of the negative control
PI-positive cell death ([3]; 30 minutes): only about as much PI-positive cell death as a negative control group
